This is an account of results in patent US4801597A, “Certain inositol-nicotinate ester derivatives and polyionic complexes therefore useful for treating diabetes meuitus, hyperlipidemia and lactic acidosis” (University of Florida, priority 1985, dated 1989).

A value given as a limit tells only on which side of the number the result lay.

The subject of one series is blood lactate. Briefly: Blood lactate lowering in fasted rats, single orogastric dose, monitored over 24 hours. In kind it is in vivo. The note with it: for duration of action (blood lactate decrease): single orogastric dose, sodium DCA 100 mg/kg or derivative equivalent to 100 mg/kg DCA. The source says: (§1) Results are expressed as (1) maximum percent decrease in glucose or lactace, relative to control, (2) the time at which the maximum changes occurred, and (3) the duration of action of the drug.

A further series concerns serum glucose. As to the kind of experiment: Serum glucose lowering in fasted rats, single orogastric dose, monitored over 24 hours. The note with it: sodium DCA 100 mg/kg or derivative equivalent to 100 mg/kg DCA. The format is in vivo.
Description: as §1

A short description of series [1]: Comparative pharmacokinetic investigations (bioavailability, oxalate formation). In kind it is in vivo. The note with it: comparative pharmacokinetic investigations with DCA and Derivative 4.
Series [2] has as its system hepatic glucose production. The note with it: cited from earlier work.
The subject of the next series is lactate oxidation. The note with it: animal tissues; cited from earlier work.
The conditions of series [3]: one human patient, about four months; resolved when treatment stopped; cited from earlier work.
The next series concerns lactic acid levels. The note with it: patients with lactic acidosis; cited from earlier work.
The conditions of series [4]: chronic administration, doses exceeding those used clinically; cited from earlier work.
Series [5] concerns circulating triglyceride and cholesterol. The note with it: obese and diabetic animals; cited from earlier work.
A further series deals with peripheral tissues. The note with it: cited from earlier work.
For the next series, the system named is blood glucose. The note with it: patients with diabetes mellitus; cited from earlier work.
The conditions of series [6]: cited from earlier work.
In a further series the test system is blood cholesterol. The note with it: patients with various forms of hyperlipidemia; cited from earlier work.

With `O=C(OC1OC(C(=O)O)C(OC(=O)C(Cl)Cl)C(OC(=O)C(Cl)Cl)C1OC(=O)C(Cl)Cl)C(Cl)Cl` (stereo not shown) [Derivative 1, potassium tetra(dichloroacetyl)glucuronate], the “duration of action (blood lactate decrease)” value in the series with blood lactate is over 24 h. The “duration of action (serum glucose decrease)” value in the series on serum glucose was over 24 h.
Turning to `C[n+]1cccc(C(=O)OC2C(OC(=O)c3ccc[n+](C)c3)C(OC(=O)c3ccc[n+](C)c3)C(OC(=O)c3ccc[n+](C)c3)C(OC(=O)c3ccc[n+](C)c3)C2OC(=O)c2ccc[n+](C)c2)c1` (stereo not shown) [Derivative 4, inositol hexa(N-methylnicotinate-dichloroacetate)], in the series on blood lactate, the “duration of action (blood lactate decrease)” value is over 24 h. Moreover, in the series with serum glucose, the “duration of action (serum glucose decrease)” value was over 24 h. The formation of oxalate result in series [1] is “minimal and unlikely to be toxic”.
Regarding `O=C(O)C(Cl)Cl` [DCA, dichloroacetic acid], the “duration of action (blood lactate decrease)” value with blood lactate was determined as 18 h. For the same compound, the hepatic glucose production entry in series [2] is listed as “inhibits hepatic glucose production”. Moreover, the lactate oxidation result with lactate oxidation is recorded as “stimulates lactate oxidation in animal tissues”. The polyneuropathy entry in series [3] is reported as “mild polyneuropathy that resolved when treatment stopped”. Moreover, the “duration of action (serum glucose decrease)” value in the series on serum glucose worked out at 17 h. Besides, the “lactic acid levels and overall morbidity” value with lactic acid levels was “significantly decreases lactic acid levels and overall morbidity in patients with lactic acidosis”. For the same compound, in series [4], the chronic toxicity result is “reversible peripheral neuropathy, changes in testicular morphology and lenticular opacities”. The “circulating triglyceride and cholesterol concentrations” value in series [5] is “reduces circulating triglyceride and cholesterol concentrations”. For the same compound, in the series with peripheral tissues, the “glucose uptake and utilization” value was “stimulates glucose uptake and utilization by peripheral tissues”. The blood glucose levels entry in the series on blood glucose is “decrease blood glucose levels in patients with diabetes mellitus”. Besides, the in vivo oxidation result in series [6] was “oxidize in vivo to glyoxylate and subsequently to oxalate”. Further, the blood cholesterol levels entry with blood cholesterol was “markedly decreases blood cholesterol levels”.
Take `O=C(OC1C(O)C(OP(=O)(O)O)C(OC(=O)C(Cl)Cl)C(OC(=O)C(Cl)Cl)C1OC(=O)C(Cl)Cl)C(Cl)Cl` (stereo not shown) [Derivative 2, inositol monophosphatetetradichloroacetate]: the “duration of action (blood lactate decrease)” value with blood lactate was over 24 h. Besides, the “duration of action (serum glucose decrease)” value in the series with serum glucose came to 24 h.
As to `O=C(OC1C(OC(=O)C(Cl)Cl)C(OC(=O)C(Cl)Cl)C(OC(=O)C(Cl)Cl)C(OC(=O)C(Cl)Cl)C1OC(=O)C(Cl)Cl)C(Cl)Cl` (stereo not shown) [Derivative 3, inositol hexadichloroacetate], the “potency relative to DCA (blood lactate)” value with blood lactate (FIG. 2, dose equivalent to 100 mg/kg DCA) is “less potent than DCA”. For the same compound, the “duration of action (blood lactate decrease)” value in the series with blood lactate stood at 8 h. The “duration of action (serum glucose decrease)” value in the series on serum glucose came out at 6 h.
